In patent US5358951A, “Angiotensin II receptor blocking 2, 3, 6 substituted quinazolinones” (American Cyanamid Company, priority 1993, dated 1994):

System: vasopressor response of angiotensin II
Test: AII Challenge: antagonism of angiotensin II vasopressor response;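 for Response Average Change: post-dose Angiotensin II-evoked rise in systolic blood pressure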
Type: in vivo
Settings: for inhibition in vivo at 1 mg/kg / inhibition in vivo at 5 mg/kg: Rattus norvegicus; for inhibition in vivo at 1 mg/kg: iv; for inhibition in vivo at 5 mg/kg: po
How it was run: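 Conscious male SHR (16-20 weeks) with aortic and caval cannulae received angiotensin II at 0.05 and 0.1 ug/kg i.v. before and 30-300 min after compound dosing (i.v., i.p. or oral). Blockade is expressed as % of each rat's predose rise in systolic pressure.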

[1] = 1 mg/kg i.v., AII 0.05 mcg/kg IV, 30 min post dose
[2] = 1 mg/kg i.v., AII 0.05 mcg/kg IV, 60 min post dose
[3] = 1 mg/kg i.v., AII 0.05 mcg/kg IV, 90 min post dose
[4] = 1 mg/kg i.v., AII 0.05 mcg/kg IV, 120 min post dose
[5] = 1 mg/kg i.v., AII 0.05 mcg/kg IV, 180 min post dose
[6] = 1 mg/kg i.v., AII 0.05 mcg/kg IV, 240 min post dose
[7] = 1 mg/kg i.v., AII 0.05 mcg/kg IV, 300 min post dose
[8] = 1 mg/kg i.v., AII 0.1 mcg/kg IV, 30 min post dose
[9] = 1 mg/kg i.v., AII 0.1 mcg/kg IV, 60 min post dose
[10] = 1 mg/kg i.v., AII 0.1 mcg/kg IV, 90 min post dose
[11] = 1 mg/kg i.v., AII 0.1 mcg/kg IV, 120 min post dose
[12] = 1 mg/kg i.v., AII 0.1 mcg/kg IV, 180 min post dose
[13] = 1 mg/kg i.v., AII 0.1 mcg/kg IV, 240 min post dose
[14] = 1 mg/kg i.v., AII 0.1 mcg/kg IV, 300 min post dose
[15] = 0.5 h, 1 mg/kg i.v., AII 0.05 mcg/kg IV, 30 min post dose
[16] = 0.5 h, 1 mg/kg i.v., AII 0.1 mcg/kg IV, 30 min post dose
[17] = 1 h, 1 mg/kg i.v., AII 0.05 mcg/kg IV, 60 min post dose
[18] = 1 h, 1 mg/kg i.v., AII 0.1 mcg/kg IV, 60 min post dose
[19] = 2 h, 1 mg/kg i.v., AII 0.05 mcg/kg IV, 120 min post dose
[20] = 2 h, 1 mg/kg i.v., AII 0.1 mcg/kg IV, 120 min post dose
[21] = 3 h, 1 mg/kg i.v., AII 0.05 mcg/kg IV, 180 min post dose
[22] = 3 h, 1 mg/kg i.v., AII 0.1 mcg/kg IV, 180 min post dose
[23] = 4 h, 1 mg/kg i.v., AII 0.05 mcg/kg IV, 240 min post dose
[24] = 4 h, 1 mg/kg i.v., AII 0.1 mcg/kg IV, 240 min post dose
[25] = 5 h, 1 mg/kg i.v., AII 0.05 mcg/kg IV, 300 min post dose
[26] = 5 h, 1 mg/kg i.v., AII 0.1 mcg/kg IV, 300 min post dose
[27] = […], 1 mg/kg i.v., AII 0.05 mcg/kg IV, 90 min post dose
[28] = […], 1 mg/kg i.v., AII 0.1 mcg/kg IV, 90 min post dose

CCCCc1nc2ccc([C@@]3(C)C[C@@H]4CCC(C)(C)N4O3)cc2c(=O)n1Cc1ccc(-c2ccccc2-c2nnn[nH]2)cc1 (relative stereo) [Example 66, Cis-2-Butyl-6-(hexahydro-2,6,6-trimethylpyrrolo[1,2-b]isoxazol-2-yl)-3-[[2'-(1H-tetrazol-5-yl)[1,1'-biphenyl]-4-yl]methyl]-4(3H)-quinazolinone]
Response Average Change [1]: 2.5 mmHg
Response Average Change [2]: 0 mmHg
Response Average Change [3]: 9 mmHg
Response Average Change [4]: 11.5 mmHg
Response Average Change [5]: 15 mmHg
Response Average Change [6]: 12.5 mmHg
Response Average Change [7]: 20 mmHg
Response Average Change [8]: 5 mmHg
Response Average Change [9]: 2.5 mmHg
Response Average Change [10]: 7.5 mmHg
Response Average Change [11]: 7.5 mmHg
Response Average Change [12]: 14 mmHg
Response Average Change [13]: 14 mmHg
Response Average Change [14]: 17.5 mmHg
Response Average Change (5 mg/kg P.O., AII 0.05 mcg/kg IV, 30 min post dose): 10 mmHg
Response Average Change (5 mg/kg P.O., AII 0.05 mcg/kg IV, 60 min post dose): 7.5 mmHg
Response Average Change (5 mg/kg P.O., AII 0.05 mcg/kg IV, 90 min post dose): 3 mmHg
Response Average Change (5 mg/kg P.O., AII 0.05 mcg/kg IV, 120 min post dose): 7.5 mmHg
Response Average Change (5 mg/kg P.O., AII 0.05 mcg/kg IV, 180 min post dose): 5 mmHg
Response Average Change (5 mg/kg P.O., AII 0.05 mcg/kg IV, 240 min post dose): 5 mmHg
Response Average Change (5 mg/kg P.O., AII 0.05 mcg/kg IV, 300 min post dose): 10 mmHg
Response Average Change (5 mg/kg P.O., AII 0.1 mcg/kg IV, 30 min post dose): 21 mmHg
Response Average Change (5 mg/kg P.O., AII 0.1 mcg/kg IV, 60 min post dose): 17.5 mmHg
Response Average Change (5 mg/kg P.O., AII 0.1 mcg/kg IV, 90 min post dose): 2.5 mmHg
Response Average Change (5 mg/kg P.O., AII 0.1 mcg/kg IV, 120 min post dose): 7.5 mmHg
Response Average Change (5 mg/kg P.O., AII 0.1 mcg/kg IV, 180 min post dose): 12.5 mmHg
Response Average Change (5 mg/kg P.O., AII 0.1 mcg/kg IV, 240 min post dose): 10 mmHg
Response Average Change (5 mg/kg P.O., AII 0.1 mcg/kg IV, 300 min post dose): 10 mmHg
inhibition in vivo at 1 mg/kg [15]: 93%
inhibition in vivo at 1 mg/kg [16]: 89%
inhibition in vivo at 1 mg/kg [17]: 100%
inhibition in vivo at 1 mg/kg [18]: 94%
inhibition in vivo at 1 mg/kg [19]: 69%
inhibition in vivo at 1 mg/kg [20]: 83%
inhibition in vivo at 1 mg/kg [21]: 60%
inhibition in vivo at 1 mg/kg [22]: 68%
inhibition in vivo at 1 mg/kg [23]: 67%
inhibition in vivo at 1 mg/kg [24]: 68%
inhibition in vivo at 1 mg/kg [25]: 47%
inhibition in vivo at 1 mg/kg [26]: 60%
inhibition in vivo at 1 mg/kg [27]: 76%
inhibition in vivo at 1 mg/kg [28]: 83%
inhibition in vivo at 5 mg/kg (0.5 h, 5 mg/kg P.O., AII 0.05 mcg/kg IV, 30 min post dose): 77%
inhibition in vivo at 5 mg/kg (0.5 h, 5 mg/kg P.O., AII 0.1 mcg/kg IV, 30 min post dose): 52%
inhibition in vivo at 5 mg/kg (1 h, 5 mg/kg P.O., AII 0.05 mcg/kg IV, 60 min post dose): 83%
inhibition in vivo at 5 mg/kg (1 h, 5 mg/kg P.O., AII 0.1 mcg/kg IV, 60 min post dose): 60%
inhibition in vivo at 5 mg/kg (2 h, 5 mg/kg P.O., AII 0.05 mcg/kg IV, 120 min post dose): 83%
inhibition in vivo at 5 mg/kg (2 h, 5 mg/kg P.O., AII 0.1 mcg/kg IV, 120 min post dose): 83%
inhibition in vivo at 5 mg/kg (3 h, 5 mg/kg P.O., AII 0.05 mcg/kg IV, 180 min post dose): 89%
inhibition in vivo at 5 mg/kg (3 h, 5 mg/kg P.O., AII 0.1 mcg/kg IV, 180 min post dose): 72%
inhibition in vivo at 5 mg/kg (4 h, 5 mg/kg P.O., AII 0.05 mcg/kg IV, 240 min post dose): 89%
inhibition in vivo at 5 mg/kg (4 h, 5 mg/kg P.O., AII 0.1 mcg/kg IV, 240 min post dose): 77%
inhibition in vivo at 5 mg/kg (5 h, 5 mg/kg P.O., AII 0.05 mcg/kg IV, 300 min post dose): 77%
inhibition in vivo at 5 mg/kg (5 h, 5 mg/kg P.O., AII 0.1 mcg/kg IV, 300 min post dose): 77%
inhibition in vivo at 5 mg/kg ([…], 5 mg/kg P.O., AII 0.05 mcg/kg IV, 90 min post dose): 93%
inhibition in vivo at 5 mg/kg ([…], 5 mg/kg P.O., AII 0.1 mcg/kg IV, 90 min post dose): 94%

CCCCc1nc2ccc([C@@]3(CC)C[C@@H]4CCCN4O3)cc2c(=O)n1Cc1ccc(-c2ccccc2-c2nnn[nH]2)cc1 (relative stereo) [Example 71, Cis-2-butyl-6-(2-ethylhexahydropyrrolo[1,2b]isoxazol-2-yl)-3-[[2'-[1-(1H-tetrazol-5-yl)][1,1'-biphenyl]-4-yl]methyl]-4(3H)-quinazolinone]
Response Average Change [1]: 20 mmHg
Response Average Change [2]: 5 mmHg
Response Average Change [3]: 30 mmHg
Response Average Change [4]: 15 mmHg
Response Average Change [5]: 15 mmHg
Response Average Change [6]: 15 mmHg
Response Average Change [7]: 20 mmHg
Response Average Change [8]: 15 mmHg
Response Average Change [9]: 15 mmHg
Response Average Change [10]: 20 mmHg
Response Average Change [11]: 10 mmHg
Response Average Change [12]: 15 mmHg
Response Average Change [13]: 22.5 mmHg
Response Average Change [14]: 23.5 mmHg
inhibition in vivo at 1 mg/kg [15]: 53%
inhibition in vivo at 1 mg/kg [16]: 60%
inhibition in vivo at 1 mg/kg [17]: 88%
inhibition in vivo at 1 mg/kg [18]: 60%
inhibition in vivo at 1 mg/kg [19]: 65%
inhibition in vivo at 1 mg/kg [20]: 73%
inhibition in vivo at 1 mg/kg [21]: 65%
inhibition in vivo at 1 mg/kg [22]: 60%
inhibition in vivo at 1 mg/kg [23]: 65%
inhibition in vivo at 1 mg/kg [24]: 40%
inhibition in vivo at 1 mg/kg [25]: 53%
inhibition in vivo at 1 mg/kg [26]: 37%
inhibition in vivo at 1 mg/kg [27]: 29%
inhibition in vivo at 1 mg/kg [28]: 47%
